Assay results from ChEMBL document CHEMBL3868595, “Plazomicin is effective in a non-human primate pneumonic plague model” (Bioorg Med Chem, 2016).

Legend:
[1] = Cmax in African green monkey blood at 25 mg/kg administered as iv infusion twice daily for 7 consecutive days measured on day 7 by LC-MS/MS analysis; type: ADME, organism-based; design: dose 25 mg/kg, route intravenous; conditions: chlorocebus aethiops
[2] = Cmax in African green monkey blood at 35 mg/kg administered as iv infusion twice daily for 7 consecutive days measured on day 1 by LC-MS/MS analysis; type: ADME, organism-based; design: dose 35 mg/kg, route intravenous; conditions: chlorocebus aethiops
[3] = Elimination half life in African green monkey blood at 25 mg/kg administered as iv infusion twice daily for 7 consecutive days measured on day 1 by LC-MS/MS analysis; type: ADME, organism-based; conditions: chlorocebus aethiops, read-out: beta t1/2 (converted)
[4] = Elimination half life in African green monkey blood at 25 mg/kg administered as iv infusion twice daily for 7 consecutive days measured on day 7 by LC-MS/MS analysis; type: ADME, organism-based; conditions: chlorocebus aethiops, read-out: beta t1/2 (converted)
[5] = Volume of distribution at steady state in African green monkey blood at 35 mg/kg administered as iv infusion twice daily for 7 consecutive days measured on day 1 by LC-MS/MS analysis; type: ADME, organism-based; conditions: chlorocebus aethiops, read-out: Vdss
African green monkey [6] = experiment: Toxicity in African green monkey assessed as effect on serum creatinine level at 25 mg/kg administered as iv infusion twice daily for 7 consecutive days measured on day 1 by LC-MS/MS analysis; type: organism-based; conditions: chlorocebus sabaeus, in vivo
African green monkey [7] = experiment: Toxicity in African green monkey assessed as effect on serum creatinine level at 35 mg/kg administered as iv infusion twice daily for 7 consecutive days measured on day 1 by LC-MS/MS analysis; type: organism-based; conditions: chlorocebus sabaeus, in vivo
Yersinia pestis [8] = experiment: (§1) Antibacterial activity against Yersinia pestis Colorado 92 infected in African green monkey B6873 model assessed as bacterial burden in spleen at 12.5 mg/kg, iv administered within 6 hrs post onset of sustained fever as 30 mins infusion for 5 days (reference value: 1.6 10^9CFU/g); type: functional, organism-based; conditions: CO92
Yersinia pestis [9] = experiment: Antibacterial activity against Yersinia pestis Colorado 92 infected in African green monkey B6106 model assessed as bacterial burden in spleen at 25 mg/kg, iv administered within 6 hrs post onset of sustained fever as 30 mins infusion for 5 days (reference value: 1.6 10^9CFU/g); type: functional, CO92
Yersinia pestis [10] = experiment: (§2) Antibacterial activity against Yersinia pestis Colorado 92 infected in African green monkey C2149 model assessed as bacterial burden in spleen at 6.25 mg/kg, iv administered within 6 hrs post onset of sustained fever as 30 mins infusion for 5 days (reference value: 1.6 10^9CFU/g); type: functional, CO92
Yersinia pestis [11] = experiment: Antibacterial activity against Yersinia pestis Colorado 92 infected in African green monkey B6469 model assessed as bacterial burden in liver at 25 mg/kg, iv administered within 6 hrs post onset of sustained fever as 30 mins infusion for 5 days (reference value: 5.2 10^8CFU/g); type: functional, organism-based; conditions: CO92
Yersinia pestis [12] = experiment: Antibacterial activity against Yersinia pestis Colorado 92 infected in African green monkey B6672 model assessed as bacterial burden in liver at 12.5 mg/kg, iv administered within 6 hrs post onset of sustained fever as 30 mins infusion for 5 days (reference value: 5.2 10^8CFU/g); type: functional, CO92
Yersinia pestis [13] = experiment: Antibacterial activity against Yersinia pestis Colorado 92 infected in African green monkey B6436 model assessed as bacterial burden in kidney at 25 mg/kg, iv administered within 6 hrs post onset of sustained fever as 30 mins infusion for 5 days (reference value: 7.1 10^7CFU/g); type: functional, organism-based; conditions: CO92
Yersinia pestis [14] = experiment: as §1, with “B6672” for “B6873”, “tracheobronchial lymph nodes” for “spleen”, “7.7” for “1.6”; type: functional, CO92, Lymph node
Yersinia pestis [15] = experiment: as §2, with “B6960” for “C2149”, “tracheobronchial lymph nodes” for “spleen”, “7.7” for “1.6”; type: functional, CO92, Lymph node
Yersinia pestis [16] = experiment: Antibacterial activity against Yersinia pestis Colorado 92 infected in African green monkey B6873 model assessed as bacterial burden in heart at 12.5 mg/kg, iv administered within 6 hrs post onset of sustained fever as 30 mins infusion for 5 days (reference value: 2.6 10^7CFU/g); type: functional, organism-based; conditions: CO92
Yersinia pestis [17] = experiment: Antibacterial activity against Yersinia pestis Colorado 92 infected in African green monkey C2083 model assessed as bacterial burden in heart at 12.5 mg/kg, iv administered within 6 hrs post onset of sustained fever as 30 mins infusion for 5 days (reference value: 2.6 10^7CFU/g); type: functional, CO92
Yersinia pestis [18] = experiment: Antibacterial activity against Yersinia pestis Colorado 92 infected in African green monkey B6436 model assessed as bacterial burden in blood at 25 mg/kg, iv administered within 6 hrs post onset of sustained fever as 30 mins infusion for 5 days (reference value: 1.2 10^7CFU/ml); type: functional, organism-based; conditions: CO92
African green monkey [19] = experiment: Toxicity in African green monkey B6127 model infected with Yersinia pestis Colorado 92 assessed as weight loss at 25 mg/kg, iv administered within 6 hrs post onset of sustained fever as 30 mins infusion for 10 days measured from day 7 to 14 post dose; type: organism-based; conditions: chlorocebus sabaeus, in vivo
African green monkey [20] = experiment: Toxicity in African green monkey 7653 model infected with Yersinia pestis Colorado 92 assessed as blood urea nitrogen level at 25 mg/kg, iv administered within 6 hrs post onset of sustained fever as 30 mins infusion for 10 days (reference value: 22 mg/dl); type: organism-based; conditions: chlorocebus sabaeus, in vivo
African green monkey [21] = experiment: Toxicity in African green monkey 7643 model infected with Yersinia pestis Colorado 92 assessed as serum creatinine level at 25 mg/kg, iv administered within 6 hrs post onset of sustained fever as 30 mins infusion for 10 days (reference value: 0.5 mg/dl); type: organism-based; conditions: chlorocebus sabaeus, in vivo
African green monkey [22] = experiment: Toxicity in African green monkey B6408 model infected with Yersinia pestis Colorado 92 assessed as serum gamma glutamyl-transferase level at 25 mg/kg, iv administered within 6 hrs post onset of sustained fever as 30 mins infusion for 10 days (reference value: 53 IU/L); type: organism-based; conditions: chlorocebus sabaeus, in vivo
African green monkey [23] = experiment: Toxicity in African green monkey B6428 model infected with Yersinia pestis Colorado 92 assessed as serum gamma glutamyl-transferase level at 25 mg/kg, iv administered within 6 hrs post onset of sustained fever as 30 mins infusion for 10 days (reference value: 31 IU/L); type: organism-based; conditions: chlorocebus sabaeus, in vivo
African green monkey [24] = experiment: Toxicity in African green monkey B6408 model infected with Yersinia pestis Colorado 92 assessed as serum lactate dehydrogenase level at 25 mg/kg, iv administered within 6 hrs post onset of sustained fever as 30 mins infusion for 10 days (reference value: 249 IU/L); type: organism-based; conditions: chlorocebus sabaeus, in vivo
African green monkey [25] = experiment: Toxicity in African green monkey 7972 model infected with Yersinia pestis Colorado 92 assessed as serum lactate dehydrogenase level at 25 mg/kg, iv administered within 6 hrs post onset of sustained fever as 30 mins infusion for 10 days (reference value: 381 IU/L); type: organism-based; conditions: chlorocebus sabaeus, in vivo
African green monkey [26] = experiment: Toxicity in African green monkey 7643 model infected with Yersinia pestis Colorado 92 assessed as serum lactate dehydrogenase level at 25 mg/kg, iv administered within 6 hrs post onset of sustained fever as 30 mins infusion for 10 days (reference value: 278 IU/L); type: organism-based; conditions: chlorocebus sabaeus, in vivo
[27] = Toxicity in African green monkey B5994 model infected with Yersinia pestis Colorado 92 assessed as total white blood cell count at 25 mg/kg, iv administered within 6 hrs post onset of sustained fever as 30 mins infusion for 10 days (reference value: 8 10^3/microL); type: organism-based; conditions: chlorocebus aethiops, in vivo

Which Cmax [1] does the source give for `CN[C@@H]1[C@@H](O)[C@@H](O[C@@H]2[C@@H](O)[C@H](O[C@H]3OC(CNCCO)=CC[C@H]3N)[C@@H](N)C[C@H]2NC(=O)[C@@H](O)CCN)OC[C@]1(C)O` [PLAZOMICIN] here?
The Cmax was 106 µg/mL.

And the Cmax [2]?
The Cmax was 176 µg/mL.

And the half-life [3]?
The half-life was 108 min.

And the half-life [4]?
The half-life was 108 min.

What about the Vd [5] of the same compound?
The Vd was 0.26 L/kg.

What about the Activity (African green monkey [6]) of the same compound?
The Activity was 0.55 mg/dL.

And the Activity (African green monkey [7])?
Its Activity is 0.6 mg/dL.

What about the Activity (Yersinia pestis [8]) of the same compound?
Its Activity is “Below limit of detection”.

What about the Activity (Yersinia pestis [9]) of the same compound?
The Activity was 31 CFU/g.

And the Activity (Yersinia pestis [10])?
Its Activity is 30 CFU/g.

What about the Activity (Yersinia pestis [11]) of the same compound?
The Activity was “Below limit of detection”.

What about the Activity (Yersinia pestis [12]) of the same compound?
Its Activity is 76 CFU/g.

What about the Activity (Yersinia pestis [13]) of the same compound?
The Activity was “Below limit of detection”.

What about the Activity (Yersinia pestis [14]) of the same compound?
The Activity was 8.3 ×10⁶ CFU/g.

What about the Activity (Yersinia pestis [15]) of the same compound?
Its Activity is 1.6 ×10⁷ CFU/g.

What about the Activity (Yersinia pestis [16]) of the same compound?
The Activity was “Below limit of detection”.

And the Activity (Yersinia pestis [17])?
The Activity was 1.5 ×10⁷ CFU/g.

And the Activity (Yersinia pestis [18])?
Its Activity is “Below limit of detection”.

What about the Activity (African green monkey [19]) of the same compound?
Its Activity is “Toxic”.

What about the Activity (African green monkey [20]) of the same compound?
Its Activity is 26 mg/dL.

And the Activity (African green monkey [21])?
Its Activity is 0.4 mg/dL.

And the Activity (African green monkey [22])?
Its Activity is 56 IU/L.

What about the Activity (African green monkey [23]) of the same compound?
The Activity was 27 IU/L.

What about the Activity (African green monkey [24]) of the same compound?
Its Activity is 304 IU/L.

What about the Activity (African green monkey [25]) of the same compound?
The Activity was 398 IU/L.

What about the Activity (African green monkey [26]) of the same compound?
The Activity was 606 IU/L.

And the Activity [27]?
Its Activity is 4.5 ×10³ /uL.
